Experimental data from patent US4939168A, “Discodermolide compounds, compositions containing same and methods of preparation and use” (Harbor Branch Oceanographics Institution, Inc., priority 1989, dated 1990).
≈ marks a conversion by molar mass, not a printed value.

Columns and labels:
Format in all cases: cell-based
[1] = system: human peripheral blood lymphocytes (PBL); experiment: human mixed lymphocyte reaction (MLR), 3H-thymidine incorporation; settings: for CPM (counts per minute of incorporated 3H-thymidine): control 48064
Description: (§1) The pure compound discodermolide I, was tested for immunosuppressive effects on the MLR and LCV assays using murine splenocytes and in the human MLR and mitogen stimulation assays, using human peripheral blood lymphocytes (PBL). Cellular proliferation was determined using incorporation of ^3 H-thymidine.
^1 Counts per minute of incorporate ^3 Hthymidine

[2] = viability of cells in the human mixed lymphocyte reaction, M.T.T. metabolism
Description: as §1
^2 % Viable cells as measured by M.T.T. metabolism

[3] = system: murine splenocytes; experiment: murine two-way mixed lymphocyte reaction (MLR), 3H-thymidine incorporation
Description: as §1

[4] = system: human peripheral blood lymphocytes (PBL); experiment: Con A mitogenesis of human lymphocytes (mitogen stimulation assay); settings: for Con A (counts per minute of incorporated 3H-thymidine): Con A 10.0 μg/ml, control 262000
Description: as §1
^1 Counts per minute of incorporated ^3 Hthymidine. Conc. of Con

[5] = murine lymphocyte viability assay (LCV), 3H-thymidine incorporation; settings: mouse, splenocytes, read-out: % LCV Control (percent of the control LCV response)
Description: as §1

[6] = system: murine splenocytes; experiment: as above
Description: as §1

[7] = system: murine P388 leukemia cells; experiment: P388 cytotoxicity (antiproliferative effect, MTT); settings: Mus musculus, 48-h exposure
Description: The crude ethanolic extract of the sponge and the pure compound I were tested for toxicity against murine P388 leukemia cells. P388 cells obtained from Dr. J. Mayo, National Cancer Institute, Bethesda, MD, were maintained in Roswell Park Memorial Institute (RPMI) medium 1640 supplemented with 10% horse serum. All cell lines were cultured in plastic tissue culture flasks and kept in an incubator at 37° C. in humidified air containing 5% CO2. Antibiotic-free stock cultures of P388 cells were subcultured to 10^5 cells/ml by dilution in fresh growth medium at 2 to 3 day intervals. The mean generation time of primary cultures was 14 to 17 hr.
To assess the antiproliferative effects of agents against P388 cells, 200 μl cultures (96-well tissue culture plates, Nunc, Denmark) were established at 1×10^5 cells/ml in drug-free medium or medium containing the crude extract at a final dilution of 1:500 or discodermolide at various concentrations. Solvent for all dilutions was methanol, which was removed from plates under vacuum. All experimental cultures were initiated in medium containing Gentamycin sulfate (50 μg/ml; Schering Corporation, Kenilworth, NJ). After 48-h exposures, P388 cells were enumerated using 3-[4,5-Dimethylthiazol-2-yl]-2,5-diphenyltetrazolium bromide (MTT) as described below (M. C. Alley, et al., Cancer Res. 48:589, 1988).
To quantitate the effects on cell proliferation, 75 μl of warm growth medium containing 5 mg/ml MTT was added to each well and cultures were returned to the incubator for 90 minutes. To spectrophotometrically quantitate formation of reduced formazan, plates were centrifuged (900×g, 5 minutes), culture fluids removed by aspiration, and 200 μl of acidified isopropanol (2 ml concentrated HCl/liter isopropanol) added per well. The absorbance of the resulting solutions were measured at 570 nm with a plate reader (MR700 Microplate Reader, Dynatech, Laboratories, Chantilly, Va.). […] A linear relationship between P388 cell number and formazan production was found over the range of cell densities observed in these experiments.

[8] = viability of human PBL in the Con A and PHA stimulation assays; settings: peripheral blood lymphocytes, 50 and 25 μg/ml
Description: as §1

[9] = system: human peripheral blood lymphocytes (PBL); experiment: PHA mitogenesis of human lymphocytes (mitogen stimulation assay); settings: for PHA (counts per minute of incorporated 3H-thymidine): PHA 10.0 μg/ml, control 412200
Description: as §1
^2 Counts per minute of incorporated ^3 Hthymidine. Conc. of PHA

[10] = 50 and 25 μg/ml, mitogen 10 μg/ml

With C=C/C=C\C(C)C(OC(N)=O)C(C)C(O)C(C)C/C(C)=C\C(C)C(O)C(C)/C=C\C(O)CC1OC(=O)C(C)C(O)C1C (single isomer, unassigned) [Discodermolide, discodermolide] the “CPM (counts per minute of incorporated 3H-thymidine)” value ([1]; 0.4 μg/ml) was 64211 CPM, the “CPM (counts per minute of incorporated 3H-thymidine)” value ([1]; 0.8 μg/ml) was 49509 CPM and the “CPM (counts per minute of incorporated 3H-thymidine)” value ([1]; 1.6 μg/ml) was 26336 CPM. The “CPM (counts per minute of incorporated 3H-thymidine)” value ([1]; 3.1 μg/ml) was 8532 CPM, the “CPM (counts per minute of incorporated 3H-thymidine)” value ([1]; 6.3 μg/ml) was 4996 CPM and the “CPM (counts per minute of incorporated 3H-thymidine)” value ([1]; 12.5 μg/ml) was 2091 CPM. For the same compound, the “CPM (counts per minute of incorporated 3H-thymidine)” value ([1]; 25 μg/ml) was 1728 CPM, the “CPM (counts per minute of incorporated 3H-thymidine)” value ([1]; 50 μg/ml) was 1932 CPM and the “immunosuppressive activity in the human MLR (in words)” value ([1]; 50, 25, 12.5, 6.3, 3.1 and 1.6 μg/ml) was “immunosuppressive”. For the same compound, the viability ([2]; peripheral blood lymphocytes, 0.4 μg/ml, read-out: % Viability (% viable cells as measured by M.T.T. metabolism)) was 115%, the viability ([2]; peripheral blood lymphocytes, 1.6 μg/ml, read-out: % Viability (% viable cells as measured by M.T.T. metabolism)) was 110% and the viability ([2]; peripheral blood lymphocytes, 3.1 μg/ml, read-out: % Viability (% viable cells as measured by M.T.T. metabolism)) was 94%. The viability ([2]; peripheral blood lymphocytes, 6.3 μg/ml, read-out: % Viability (% viable cells as measured by M.T.T. metabolism)) was 94%, the viability ([2]; peripheral blood lymphocytes, 12.5 μg/ml, read-out: % Viability (% viable cells as measured by M.T.T. metabolism)) was 94% and the viability ([2]; peripheral blood lymphocytes, 25 μg/ml, read-out: % Viability (% viable cells as measured by M.T.T. metabolism)) was 102%. For the same compound, the viability ([2]; peripheral blood lymphocytes, 50 μg/ml, read-out: % Viability (% viable cells as measured by M.T.T. metabolism)) was 204%, the viability ([2]; peripheral blood lymphocytes, 50, 25, 12.5, 6.3, 3.1 and 1.6 μg/ml, read-out: viability in the human MLR) was over 94% and the “immunosuppressive activity in the murine MLR (in words)” value ([3]; 0.5 μg/ml) was “immunosuppressive”. The “immunosuppressive activity in the murine MLR (in words)” value ([3]; 500, 50 and 5 μg/ml) was “exhibited immunosuppressive activity”, the activity at 0.5 µg/mL ([3]; Mus musculus, Splenocyte, 0.5 μg/ml, read-out: % MLR Control (percent of the control MLR response)) was 18% and the activity at 5 µg/mL ([3]; Mus musculus, Splenocyte, 5 μg/ml, read-out: % MLR Control (percent of the control MLR response)) was 25%. For the same compound, the activity at 50 µg/mL ([3]; Mus musculus, Splenocyte, 50 μg/ml, read-out: % MLR Control (percent of the control MLR response)) was under 1%, the activity at 500 µg/mL ([3]; Mus musculus, Splenocyte, 500 μg/ml, read-out: % MLR Control (percent of the control MLR response)) was under 1% and the “Con A (counts per minute of incorporated 3H-thymidine)” value ([4]; 6.3 μg/ml) was 299518 Counts per minute. The “Con A (counts per minute of incorporated 3H-thymidine)” value ([4]; 12.5 μg/ml) was 213740 Counts per minute, the “Con A (counts per minute of incorporated 3H-thymidine)” value ([4]; 25 μg/ml) was 11567 Counts per minute and the “Con A (counts per minute of incorporated 3H-thymidine)” value ([4]; 50 μg/ml) was 10230 Counts per minute. For the same compound, the “suppression of Con A stimulation of human PBL (in words)” value [4, 10] was “suppressed”, the viability ([5]; 0.5 μg/ml) was 151% and the viability ([5]; 5 μg/ml) was 68%. For the same compound, the viability ([5]; 50 μg/ml) was 26%, the viability ([5]; 500 μg/ml) was under 1% and the “toxicity in the murine assay (in words)” value ([6]; 0.5 μg/ml) was “no associated toxicity”. For the same compound, the “toxicity in the murine assay (in words)” value ([6]; 500, 50 and 5 μg/ml) was “with associated toxicity”, the inhibition at 0.125 µg/mL ([7]; 0.125 μg/ml) was 2% and the inhibition at 0.25 µg/mL ([7]; 0.25 μg/ml) was 12%. The inhibition at 0.5 µg/mL ([7]; 0.5 μg/ml) was 49%, the inhibition at 1 µg/mL ([7]; 1.0 μg/ml) was 75% and the inhibition at 2.5 µg/mL ([7]; 2.5 μg/ml) was 87%. It also gave an inhibition at 5 µg/mL ([7]; 5 μg/ml) of 88%, an inhibition at 10 µg/mL ([7]; 10 μg/ml) of 90% and an inhibition at 20 µg/mL ([7]; 20 μg/ml) of 92%. For the same compound, the IC50 ([7]; read-out: IC50 (concentration resulting in 50% inhibition of proliferation)) was 0.5 µg/mL (≈ 0.842 µM), the viability [8] was over 91% and the “PHA (counts per minute of incorporated 3H-thymidine)” value ([9]; 6.3 μg/ml) was 441580 Counts per minute. The “PHA (counts per minute of incorporated 3H-thymidine)” value ([9]; 12.5 μg/ml) was 391633 Counts per minute, the “PHA (counts per minute of incorporated 3H-thymidine)” value ([9]; 25 μg/ml) was 14425 Counts per minute and the “PHA (counts per minute of incorporated 3H-thymidine)” value ([9]; 50 μg/ml) was 16984 Counts per minute. For the same compound, the “suppression of PHA stimulation of human PBL (in words)” value [9, 10] was “suppressed”.
